Key:
male ob/ob mice = experiment: Hypoglycemic activity in ob/ob mice; assay type: in vivo; settings: fasting, relative to control group
Method: A 0.5% methyl cellulose suspension of the test compound was orally administered to 6- to 9-week-old male ob/ob mice grouped according to the glucose level. Only a 0.5% methyl cellulose solution was administered to a control group.
Blood was drawn under fasting condition, which condition was started simultaneously with the administration by means of removing the feed. The blood was drawn under anesthesia from the orbital vein 3 hours after the administration. The blood thus taken was centrifuged and the glucose level was measured from the obtained plasma by the hexokinase method (glucose measurement kit). For evaluation, the percentage (%) of decrease in the glucose level of the test compound-administered group relative to the control group is shown.

[1] = target: T1, Recombinant human protein tyrosine phosphatase 1B (Homo sapiens, UniProt P18031); experiment: Protein tyrosine phosphatase 1B inhibitory activity (malachite green, phosphorylated insulin receptor peptide substrate); assay type: biochemical; settings: recombinant human PTP1B, 60 min room temperature, absorbance 650 nm
T1 construct: purchased UBI
T1 sequence (P18031 1-435): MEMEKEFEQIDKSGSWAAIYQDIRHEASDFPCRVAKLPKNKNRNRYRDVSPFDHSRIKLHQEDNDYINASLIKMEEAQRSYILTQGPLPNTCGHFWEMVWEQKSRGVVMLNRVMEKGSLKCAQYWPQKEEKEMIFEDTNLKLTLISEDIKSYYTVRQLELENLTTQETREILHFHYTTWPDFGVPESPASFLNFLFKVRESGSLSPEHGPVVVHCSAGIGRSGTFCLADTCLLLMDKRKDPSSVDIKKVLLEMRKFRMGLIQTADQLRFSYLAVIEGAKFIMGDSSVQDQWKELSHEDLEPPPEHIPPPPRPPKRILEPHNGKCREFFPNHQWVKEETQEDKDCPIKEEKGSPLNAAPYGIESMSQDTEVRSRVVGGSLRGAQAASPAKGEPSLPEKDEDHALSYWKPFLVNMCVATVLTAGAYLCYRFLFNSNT
Method: Preparation of Assay Buffer:
A 50 mM Tris-HCl buffer (pH 7.5), 50 mM NaCl and 3 mM dithiothreitol (DTT) were prepared.
[…] 0.1, 0.3, 1, 3 and 10 μM of the test compound were prepared and diluted with the above-mentioned assay buffer to the final dimethyl sulfoxide (DMSO) concentration of not more than 1%. As the control, the assay buffer was used.
Preparation of Substrate:
Recombinant human protein tyrosine phosphatase 1B (manufactured by UBI) was diluted with the above-mentioned assay buffer (1.2 ng/25 μl).
The sample (10 μl) prepared as mentioned above and a substrate (25 μl) were successively added to a 96 well plate, and the enzyme (25 μl) prepared as mentioned above was added and mixed. The mixture was incubated at room temperature for 60 min and a malachite green (120 μl, Biomol), which is a color reagent, was added. The mixture was further incubated at room temperature for 20 min to allow for color development. An absorbance at 650 nm was measured on a plate reader based on which the protein tyrosine phosphatase 1B inhibitory activity of the test compound was evaluated.

female ob/ob mice = experiment: Effect of concomitant use with glibenclamide on hypoglycemic activity; assay type: in vivo; settings: glibenclamide 3 mg/kg oral alone, relative to control
Method: To 10-week-old female ob/ob mice grouped according to glucose level were orally administered a 0.5% methyl cellulose suspension of the test compound {note: Example 4-2 (1 mg/kg)} (test compound-administered group), a 0.5% methyl cellulose suspension of glibenclamide (3 mg/kg) (glibenclamide-administered group), simultaneously both a 0.5% methyl cellulose suspension of the test compound and a 0.5% methyl cellulose suspension (glibenclamide 3 mg/kg) (test compound and glibenclamide concomitant use group), or a 0.5% methyl cellulose solution alone (control group).
Blood was drawn under fasting condition, which condition was started simultaneously with the administration by means of removing the feed. […] The blood thus taken was centrifuged and the glucose level was measured from the obtained plasma by the hexokinase method (glucose kit). For evaluation, the percentage (%) of decrease in the glucose level of each group other than the control group relative to the control group is shown.

SMILES	IC50 [1]	melting point	blood glucose decreasing rate (%) 3 hours later (male ob/ob mice; dose 1 mg/kg oral)	blood glucose decreasing rate (%) 3 hours later (male ob/ob mice; dose 3 mg/kg oral)	blood glucose decreasing rate (%) 3 hours later (female ob/ob mice)	blood glucose decreasing rate (%) 15 hours later (female ob/ob mice)
CCCC(CCC)c1ccc(OCc2ccc(-c3csc(CN4Cc5ccccc5CC4C(=O)O)n3)cc2)cc1 (stereo not drawn) [Example 1-45]	0.066 µM	117 to 126 °C	32%			
CN(Cc1ccc(C2CCCCC2)cc1)c1ccc(-c2csc(CN3CCC(C(=O)O)(c4ccccc4)CC3)n2)cc1 [Example 3-67]	0.23 µM	220 to 222 °C		20%		
CCCC(CCC)c1ccc(OCc2ccc(-c3csc(COc4cncc(C(=O)O)c4)n3)cc2)cc1 [Example 1-48]	0.23 µM	165 to 171 °C	46%			
CCCC(CCC)c1ccc(N(C)Cc2ccc(-c3csc(N(C)Cc4ccc(C(=O)O)cc4)n3)cc2)cc1 [Example 1-19]	0.1 µM	110 to 113 °C	35%			
COc1ccc(Cl)cc1C(=O)NCCc1ccc(S(=O)(=O)NC(=O)NC2CCCCC2)cc1 [Glibenclamide, glibenclamide, reference compound]					44%	40%
CN(Cc1ccc(C(=O)O)cc1)c1nc(-c2ccc(COc3ccc(C4CCCCC4)cc3)cc2)cs1 [Example 1-37]	0.14 µM	209 to 211 °C		26%		
CCCC(CCC)c1ccc(N(C)Cc2ccc(-c3csc(CN(CC(=O)O)Cc4ccccc4)n3)cc2)cc1 [Example 1-25]	0.13 µM	138 °C	25%			
CCCC(CCC)c1ccc(OCc2ccc(-c3csc(CN(CC(=O)O)Cc4ccccc4)n3)cc2)cc1 [Example 1-44]	0.22 µM	138 to 142 °C	20%			
CCC(CC)c1ccc(N(Cc2ccc(-c3csc(CN(CC(=O)O)CC(=O)Nc4ccc(C(C)C)cc4)n3)cc2)C(C)C)cc1 [Example 1-78]	0.18 µM			24%		
CCC(CC)c1ccc(N(Cc2ccc(-c3csc(COc4cncc(C(=O)O)c4)n3)cc2)C(C)C)cc1 [Example 1-1, 5-{4-[4-({[4-(1-Ethylpropyl)phenyl]isopropylamino}methyl)-phenyl]thiazol-2-ylmethoxy}nicotinic acid]	0.28 µM		45%			
CCCC(CCC)c1ccc(N(C)Cc2ccc(-c3csc(CN(C)S(=O)(=O)c4ccc(C(=O)O)cc4)n3)cc2)cc1 [Example 1-15]	0.13 µM		35%			
CCCC(CCC)c1ccc(OCc2ccc(-c3csc(N(C)Cc4ccc(C(=O)O)cc4)n3)cc2)cc1 [Example 1-39]	0.19 µM	156 to 158 °C	32%			

Second part, led by results:

IC50 [1]	melting point	SMILES	blood glucose decreasing rate (%) 3 hours later (male ob/ob mice; dose 1 mg/kg oral)	blood glucose decreasing rate (%) 3 hours later (male ob/ob mice; dose 3 mg/kg oral)	blood glucose decreasing rate (%) 3 hours later (female ob/ob mice)	blood glucose decreasing rate (%) 15 hours later (female ob/ob mice)
0.39 µM	124 to 126 °C	CC(C)Cc1ccc(CN(C)c2ccc(-c3csc(CN(CC(=O)O)C(=O)Cc4ccc(C(C)C)cc4)n3)cc2)cc1 [Example 3-58]	23%			
0.21 µM	186 to 187 °C	CCCC(CCC)c1ccc(CN(C)c2ccc(-c3csc([C@@H]4Cc5ccccc5CN4CC(=O)[O-])n3)cc2)cc1.[Na+] [Example 3-64]	13%			
0.14 µM	149 to 152 °C	CCCC(CCC)c1ccc(COc2ccc(C)cc2-c2csc(CN3Cc4ccccc4CC3C(=O)O)n2)cc1 (stereo not drawn) [Example 3-25]	20%			
0.2 µM	176 to 179 °C	CCCC(CCC)c1ccc(CN(C)c2ccc(-c3csc(CN4Cc5ccccc5CC4C(=O)O)n3)cc2)cc1 (stereo not drawn) [Example 3-73]	14%			
0.18 µM	157 to 159 °C	CN(Cc1ccc([C@H]2CC[C@H](C)CC2)cc1)c1ccc(-c2csc(CN(CC(=O)O)Cc3ccccc3)n2)cc1 [Example 3-32]	14%			
0.1 µM		CCCC(CCC)c1ccc(CN(C)c2ccc(-c3csc(CN(CC(=O)O)Cc4ccccc4)n3)cc2)cc1 [Example 3-36]		52%		
0.15 µM	193 to 196 °C	CN(Cc1ccc(C2CCCCC2)cc1)c1ccc(-c2csc(CN(C)S(=O)(=O)c3ccc(C(=O)O)cc3)n2)cc1 [Example 3-100]		20%		
0.17 µM	126 to 128 °C	CCCC(CCC)c1ccc(COc2ccc(C)cc2-c2csc(CN(CC(=O)O)Cc3ccccc3)n2)cc1 [Example 3-9]	18%			
0.16 µM		CN(Cc1ccc([C@H]2CC[C@H](C)CC2)cc1)c1ccc(-c2csc(COC(=O)N(CC(=O)O)Cc3ccccc3)n2)cc1 [Example 3-108]	29%			
0.45 µM	118 to 120 °C	CCCC(CCC)c1ccc(COc2ccc(C)cc2-c2csc(CN(CC(=O)O)Cc3ccccn3)n2)cc1 [Example 3-21]	27%			
0.18 µM	166 to 167 °C	CC(C)CCN(CC(=O)O)Cc1nc(-c2ccc(N(C)Cc3ccc([C@H]4CC[C@H](C)CC4)cc3)cc2)cs1 [Example 3-92]	26%			
0.27 µM	138 to 140 °C	CCC(CC)c1ccc(COc2ccc(-c3csc(CN(CC(=O)O)Cc4ccc(C(C)C)cc4)n3)cc2)cc1 [Example 3-15]	25%			
0.41 µM	148 to 150 °C	CN(Cc1ccc(C2CCCCC2)cc1)c1ccc(-c2csc(CN(CC(=O)O)Cc3ccccc3)n2)cc1 [Example 3-29]		41%		
0.48 µM	185 to 190 °C	CN(Cc1ccc(C2CCCCC2)cc1)c1ccc(-c2csc(CNC(Cc3ccccc3)C(=O)O)n2)cc1 (stereo not drawn) [Example 3-76]	33%			
0.16 µM	218 to 221 °C	CN(Cc1ccc(C2CCC(C)(C)CC2)cc1)c1ccc(-c2csc(CN(C)S(=O)(=O)c3ccc(C(=O)O)cc3)n2)cc1 [Example 3-98]		31%		
0.28 µM	117 to 120 °C	CCCC(CCC)c1ccc(CN(C)c2ccc(-c3csc(CN(CC(=O)O)Cc4ccccn4)n3)cc2)cc1 [Example 3-53]	20%			
0.2 µM	143 °C	CCCC(CCC)c1ccc(CN(C)c2ccc(-c3csc(CN(C)[C@@H](Cc4ccccc4)C(=O)O)n3)cc2)cc1 [Example 3-86]	16%			
0.2 µM	145 to 148 °C	CCCC(CCC)c1ccc(COc2ccc(-c3csc(CN(CC(=O)O)Cc4ccccc4)n3)cc2)cc1 [Example 3-10]	18%			

— US20060122181A1, “Heteroaromatic pentacyclic compound and medicinal use thereof” (Japan Tobacco Inc., priority 2003, published 2006)
